From article PMC6986439, “Sultiame pharmacokinetic profile in plasma and erythrocytes after single oral doses: A pilot study in healthy volunteers” (Pharmacology Research & Perspectives, 2020)
Like-named read-outs stand apart in the source and are kept apart here.

Legend:
erythrocytes = assay: In vitro spiking experiment: sultiame exchanges between plasma and erythrocytes; assay type: in vitro ADME, human
Description: A spiking experiment was performed to better characterize sultiame exchanges between plasma and erythrocytes. The influx into cells was investigated through spiking fresh human whole blood on EDTA at different target concentrations (1, 5, 10, 20, 40, and 80 mg/L) and different temperatures (4, 21, and 37°C), followed by sampling at 0, 2, 4, 6, 8, 10, 15, 30, 60, 120, and 180 min. The efflux was investigated through incubating whole blood for 1 h at 2 concentrations (10 and 40 mg/L) at 37°C, centrifugating and briefly washing the erythrocytes with NaCl 0.9%, and letting them equilibrate with fresh plasma while drawing samples at 0, 2, 4, 6, 8, 10, 15, 30, 60, 120, 180 minutes, and 24 hours.
In addition, competition studies were performed with two other antiepileptic agents known for their affinity for CA (zonisamide and topiramate), added at equimolar concentration to 20 mg/L of sultiame. Similar ranges of inhibition constants for CA II were reported in the literature for these three substances.13 Samples (1 mL) were drawn before and at 2, 4, 6, 8, 10, 15, 20, 30, 45, 60, and 120 min after addition of the competitor. Sultiame, zonisamide, and topiramate concentrations were then analyzed. All samples were centrifuged at 18 620 g for 1 minutes at 4°C. Plasma, erythrocyte, and urine fractions were stored separately at − 80°C prior to analysis for a maximum of 9 months. For analysis, plasma and hemolyzed erythrocytes samples were subjected to protein precipitation with MeOH containing the internal‐standard sultiame D4 and quantified with the previously described HPLC‐MS/MS method, using matrix‐matched calibration and quality controls. The sultiame concentrations determined in erythrocytes were corrected for the 10% interstitial plasma remnant in the erythrocyte fraction after centrifugation.14

[1] = Noncompartmental pharmacokinetics after single oral doses in healthy volunteers; assay type: in vivo, human; settings: for half-life / Cmax / AUC / Tmax / CL renal: male, human; for AUC: read-out: AUC(0‐inf); for Tmax: read-out: Median tmax (range); for CL renal / Recovery unchanged: urine; for CL renal: read-out: Renal clearance (converted)
Excerpt: Eligible subjects for the clinical study were healthy adult male volunteers aged 18‐45 years, with a body weight ranging between 55 and 95 kg and a body mass index of 18‐29 kg/m^2. Subjects with a history or evidence of clinically significant diseases or interfering conditions were excluded. Other exclusion criteria included: history of any clinically significant laboratory value including serology for hepatitis and HIV, relevant alcohol or drug abuse, recent acute illness, or use of any medication the week prior to study.
Single oral doses of 50, 100, and 200 mg of sultiame (Ospolot®, immediate‐release coated tablets) were administered in fasting conditions, in open‐label, during periods 1, 2, and 3, respectively, at 4‐6 weeks interval. On each period, serial plasma and whole blood samples were collected predose, then at 15, 30 min, 1, 2, 3, 4, 5, 6, 8, 10, 24, 48, 72 168, 336, and 504 hours postdose. Plasma and whole blood samples were stored at − 80°C until analysis. Hematocrit was measured using a microhematocrit centrifuge machine (Haematokrit 200®, Hettich AG, Bäch, Switzerland) on each occasion to calculate intraerythrocytic concentrations. Urine PK samples were collected in 6 fractions, before dosing, from 0‐2, 2‐4, 4‐8, 8‐10, and 10‐24 hours postdose. Urine pH was measured on each fraction.
The quantification of sultiame in whole blood, plasma, and urine was performed using a high‐performance liquid chromatography coupled to tandem triple quadrupole mass spectrometry (LC‐MS/MS) method developed and validated purposely for the trial. Briefly, 300 µL of methanol (MeOH) containing the internal standard (IS) sultiame‐D4 (Toronto Research Chemicals, Canada) was added to 100 µL of human plasma, hemolyzed whole blood, or hemolyzed red blood cells, for protein precipitation. Urine samples were processed similarly. After vortex, sonication for 30 seconds, and centrifugation steps, 250 µL of supernatant was transferred into a glass vial with insert, followed by dilution with 250 µL of pure water and a final vortex step, prior to LC‐MS/MS analysis. Chromatographic analyses were carried out on a XSelect HSS T3 column (Waters, Milford, MA, USA) using a water‐acetonitrile gradient over 5 minutes. Detection was performed with a triple quadrupole mass spectrometer (TSQ Quantum Ultra, ThermoFisher Scientific, Waltham, MA, USA) using the m/z transitions 289.0 → 225.1 for sultiame, and 293.0 → 229.1 for sultiame‐D4. Lower limits of detection and quantification of the method were 0.001 and 0.01 µg/mL, respectively, with a dynamic range extending up to 50 µg/mL. […] Deviations from nominal concentration (inaccuracy) of internal QCs were comprised within − 1.9 to + 11.7% over the calibration range. […] Metabolites, whose chemical structure is still elusive, were not determined.
Erythrocytic concentrations (Cery) were deduced from whole blood and plasma measurements as: Cery=Cwhole blood-Cplasma·1-Ht/Ht
Plasma, whole blood, and urine sultiame PK parameters were first computed for each volunteer using standard noncompartmental calculations with Stata® (version 13, StataCorp. 2013, Stata Statistical Software, College Station TX, USA).
The area under the curve for a single dose (AUC0‐inf) was calculated using the log trapezoidal rule with extrapolation to infinity. The terminal rate constant ( λz ) was derived from a two‐exponential model curve. CL/F was calculated as the dose divided by AUC0‐inf, the half‐life (t1/2) as ln(2)/ λz , and V/F as (CL/F)/ λz .

[2] = design: method as in earlier work; settings: manufacturer's information ref 8; cited from earlier work
[3] = 37 °C, deduced using Arrhenius' law
[4] = plasma, single oral dose 50 mg, n = 4, geometric mean (CV%)
[5] = plasma, single oral dose 100 mg, n = 4, geometric mean (CV%)
[6] = plasma, single oral dose 200 mg, n = 4, geometric mean (CV%)
[7] = single oral dose 50 mg, n = 4, geometric mean (CV%)
[8] = single oral dose 100 mg, n = 4, geometric mean (CV%)
[9] = single oral dose 200 mg, n = 4, geometric mean (CV%)
[10] = whole blood, single oral dose 50 mg, n = 4, geometric mean (CV%)
[11] = whole blood, single oral dose 100 mg, n = 4, geometric mean (CV%)
[12] = whole blood, single oral dose 200 mg, n = 4, geometric mean (CV%)

## NS(=O)(=O)c1ccc(N2CCCCS2(=O)=O)cc1 [Sultiame]
erythrocytes; [3]
  koff: 175 h⁻¹
  kon: 2018 µM⁻¹ h⁻¹
erythrocytes; concentrations of 10 mg/L or less
  erythrocyte/plasma ratio: 800
erythrocytes; concentrations of 20 mg/L and above
  erythrocyte/plasma ratio: less than 30
erythrocytes; erythrocytes incubated 1 h at 10 and 40 mg/L, 37°C, data not shown
  efflux from incubated erythrocytes into blank plasma: only minute amounts
erythrocytes; in vitro evaluation
  in vitro binding capacity: exceeding 20 mg per liter of whole blood
erythrocytes; in vitro spiking
  whole blood concentration at which saturation of erythrocytes occurs: ~20 mg/L
erythrocytes; spiked fresh human whole blood
  time to steady state of erythrocyte/plasma ratio: about 10 minutes
[1]; between dose levels 50, 100, 200 mg
  increase in plasma Cmax for each doubling of dose: 10 fold
[1]; between the 50 and 200 mg doses
  increase in urinary recovery of unchanged sultiame: about 10 fold
[1]; whole blood, oral, noncompartmental, highest observed, read-out: whole blood t1/2
  half-life: ≤ 13 days
[1]; [4]
  Cmax: 20 ng/mL
  AUC: 1.24 µg·h/mL
  CL/F: 40.4 (93) L/h
  V/F: 2964 (21) L
[1]; plasma, single oral dose 50 mg, n = 4, geometric mean (CV%), read-out: t1/2 (converted)
  half-life: 2.12 days
[1]; plasma, single oral dose 50 mg, n = 4
  Tmax: 7 h
[1]; [5]
  Cmax: 180 ng/mL
  AUC: 8.57 µg·h/mL
  CL/F: 11.7 (25) L/h
  V/F: 1529 (21) L
[1]; plasma, single oral dose 100 mg, n = 4, geometric mean (CV%), read-out: t1/2 (converted)
  half-life: 3.79 days
[1]; plasma, single oral dose 100 mg, n = 4
  Tmax: 2 h
[1]; [6]
  Cmax: 1880 ng/mL
  AUC: 24 µg·h/mL
  CL/F: 8.3 (26) L/h
  V/F: 480 (26) L
[1]; plasma, single oral dose 200 mg, n = 4, geometric mean (CV%), read-out: t1/2 (converted)
  half-life: 1.67 days
[1]; plasma, single oral dose 200 mg, n = 4
  Tmax: 1.5 h
[1]; [7]
  CL renal: 2.83 mL/min
  Recovery unchanged: 1.61 (17) %
[1]; [8]
  CL renal: 2.33 mL/min
  Recovery unchanged: 5.24 (111) %
[1]; [9]
  CL renal: 2.17 mL/min
  Recovery unchanged: 16.73 (36) %
[1]; [10]
  Cmax: 7910 ng/mL
  AUC: 3320 µg·h/mL
  CL/F: 0.015 (37) L/h
  V/F: 6.8 (21) L
[1]; whole blood, single oral dose 50 mg, n = 4, geometric mean (CV%), read-out: t1/2 (converted)
  half-life: 13 days
[1]; whole blood, single oral dose 50 mg, n = 4
  Tmax: 3 h
[1]; [11]
  Cmax: 15900 ng/mL
  AUC: 4540 µg·h/mL
  CL/F: 0.008 (34) L/h
  V/F: 7.4 (21) L
[1]; whole blood, single oral dose 100 mg, n = 4, geometric mean (CV%), read-out: t1/2 (converted)
  half-life: 9.71 days
[1]; whole blood, single oral dose 100 mg, n = 4
  Tmax: 5.01 h
[1]; [12]
  Cmax: 17200 ng/mL
  AUC: 4530 µg·h/mL
  CL/F: 0.044 (41) L/h
  V/F: 16.2 (27) L
[1]; whole blood, single oral dose 200 mg, n = 4, geometric mean (CV%), read-out: t1/2 (converted)
  half-life: 10.5 days
[1]; whole blood, single oral dose 200 mg, n = 4
  Tmax: 2.5 h
[2]
  Plasma‐free fraction: 71%
